Counter-ions that a name gives are not always drawn.
target: T1, human recombinant DPIV enzyme (Homo sapiens, UniProt P27487); test: Human Recombinant DPIV Activity Assay (fluorometric end point, Gly-Pro-AMC substrate); assay type: biochemical; conditions: enriched human recombinant DPIV enzyme (21.3 μU/μl), Gly-Pro-AMC 0.02 mM, 12 points concentration response curve, duplicate
T1 construct: Secreted DPIV (lacking membrane anchor) is enriched from HEK293 cell culture supernatant; made in house; host or cells: HEK293
T1 sequence (P27487 29-766 limits assumed): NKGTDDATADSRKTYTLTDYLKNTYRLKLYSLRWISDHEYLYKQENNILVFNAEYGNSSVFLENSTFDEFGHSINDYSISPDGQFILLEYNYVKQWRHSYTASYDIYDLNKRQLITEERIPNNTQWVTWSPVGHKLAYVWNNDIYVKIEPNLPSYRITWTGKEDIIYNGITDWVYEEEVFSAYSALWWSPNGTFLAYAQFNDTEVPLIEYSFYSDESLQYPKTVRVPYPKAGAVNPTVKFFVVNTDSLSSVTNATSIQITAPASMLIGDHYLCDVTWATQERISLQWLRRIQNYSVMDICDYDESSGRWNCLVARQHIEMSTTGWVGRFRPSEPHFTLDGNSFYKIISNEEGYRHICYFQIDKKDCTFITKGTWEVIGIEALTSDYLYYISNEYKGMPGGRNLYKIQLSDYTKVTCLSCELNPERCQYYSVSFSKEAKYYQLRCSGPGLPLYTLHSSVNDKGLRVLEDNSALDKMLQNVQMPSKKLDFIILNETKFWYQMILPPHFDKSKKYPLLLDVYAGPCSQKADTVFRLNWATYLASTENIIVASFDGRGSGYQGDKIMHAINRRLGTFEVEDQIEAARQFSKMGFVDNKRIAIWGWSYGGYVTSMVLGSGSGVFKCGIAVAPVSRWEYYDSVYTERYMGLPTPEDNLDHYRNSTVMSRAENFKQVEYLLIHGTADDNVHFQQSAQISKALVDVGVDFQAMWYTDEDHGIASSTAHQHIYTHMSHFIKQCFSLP
Method: Human Recombinant DPIV Activity Assay
The DPIV assay uses a fluorometric end point assay (excitation 355 nm; emission 460 nm), enriched human recombinant DPIV enzyme (21.3 μU/μl), and Gly-Pro-AMC (Bachem I-1225) as substrate (0.02 mM). Secreted DPIV (lacking membrane anchor) is enriched from HEK293 cell culture supernatant by ultrafiltration, ultra-centrifugation, and size-exclusion chromatography. IC50 values of the compounds are calculated based on a 12 points concentration response curve. Each concentration is measured in duplicate. The assay is validated by plate variability and conformity, inter-plate variability, signal window, and minimum significant ration of IC50. A MSR is calculated based on a test/retest analysis and a retrospective analysis. The MSR value is 1.8.

Question: Which IC50 does the source give for CC(C)(NC(=O)c1cccnc1C[C@H](O)[C@H](N)Cc1ccccc1F)c1ccccc1 [Example 23, 2-[(2S,3R)-3-Amino-4-(2-fluoro-phenyl)-2-hydroxy-butyl]-N-(1-methyl-1-phenyl-ethyl)-nicotinamide Dihydrochloride] here?
Answer: The IC50 was 22 nM.

Question: For Cc1ccc(C)c(C[C@@H](N)[C@@H](O)Cc2ncccc2C(=O)NC(C)(C)C)c1 [Example 8, 2-[(2S,3R)-3-Amino-4-(2,5-dimethyl-phenyl)-2-hydroxy-butyl]-N-tert-butyl-nicotinamide Dihydrochloride], which IC50 is on record?
Answer: The IC50 was 30 nM.

Question: Which IC50 does the source give for N[C@H](Cc1ccccc1F)[C@@H](O)Cc1ccccn1 [Example 27, (2S,3R)-3-Amino-4-(2,-fluoro-phenyl)-1-pyridin-2-yl-butan-2-ol Dihydrochloride] here?
Answer: The IC50 was 232 nM.

Question: How did the IC50 turn out when CC(C)(C)NC(=O)c1cccnc1C[C@H](O)[C@H](N)Cc1cc(F)ccc1C(F)(F)F (racemic) [Example 10, 2-[(2SR,3RS)-3-Amino-4-(5-fluoro-2-trifluoromethylphenyl)-2-hydroxybutyl]-N-tert-butylnicotinamide Dihydrochloride] was run?
Answer: The IC50 was 342 nM.

Source: patent US8133907B2, “Pyridine derivatives as dipeptedyl peptidase inhibitors” (Eli Lilly and Company, priority 2005, dated 2012)
